The target of one series is SARS-Cov-2 3CLpro (Severe acute respiratory syndrome coronavirus 2, UniProt P0DTD1). Nature of the series: biochemical. To be noted: Table A, class symbols.
In series [1] the test system is human beta-coronavirus OC43. Put plainly: OC43 Coronavirus Assay in HeLa cells (antiviral, cytopathic effect, cell-titer-glo). The format is cell-based. To be noted: Table B, OC43 coronavirus in HeLa cells, read-out: EC50.
The test system of series [2] is SARS-CoV-2 B.1.1.7 lineage. Nature of the series: microbe, parasite or virus in culture. The format is cell-based. To be noted: Table C, SARS-CoV-2 B.1.1.7 in A549-dual_ACE2_TMPRSS2 cells, read-out: A549-dual_ACE2_TMPRSS2 (EC50).
For series [3], the system named is A549-dual_ACE2_TMPRSS2 cells. Put plainly: Toxicity testing in A549-dual_ACE2_TMPRSS2 cells without virus (MTS). The following applies: read-out: A549-dual_ACE2_TMPRSS2 (CC50); Table C; A549-dual_ACE2_TMPRSS2 cells without virus, class symbols.
Series [4] concerns HeLa human cervical epithelial cells. Nature of the series: Cytotoxicity in HeLa cells without addition of OC43 virus (in parallel). To be noted: Table B; HeLa cells without OC43 virus, class symbols.
The subject of series [5] is A549-dual_ACE2_TMPRSS2 cells. The following applies: human.
A short description of series [6]: Toxicity testing in A549-dual_ACE2_TMPRSS2 cells without virus (MTS). The following applies: human.
Series [7] in a line: Cytotoxicity in HeLa cells without addition of OC43 virus (in parallel). The following applies: human, HeLa cells, without OC43 virus.
Another series can be described thus: in vitro. The following applies: human.
[8] abbreviates: Betacoronavirus 1, OC43, HeLa, cells given as a bound.
[9] abbreviates: Severe acute respiratory syndrome coronavirus 2, cells given as a bound.
Setting [10] is: Betacoronavirus 1, OC43, HeLa, class symbols.

Each structure is given as a SMILES string. Where two headings read alike, the source gives them in different places. Some results are limits rather than exact numbers.

Here are results for eight compounds from US20240199647A1, “ANTI-VIRAL COMPOUNDS” (Aligos Therapeutics, Inc., priority 2022, published 2024).

For the compound `Cc1nnn(C(CC2CC2)C(=O)N(C)[C@@H](CC2CC2)C(=O)N2C[C@@]3(C[C@H]2C#N)Oc2cc(F)cc(F)c2NC3=O)c1C` (relative stereo) [Compound 118, ((R*)—N—((S)-1-((2R,5'S)-5′-cyano-5,7-difluoro-3-oxo-3,4-dihydrospiro[benzo[b][1,4]oxazine-2,3′-pyrrolidin]-1′-yl)-3-cyclopropyl-1-oxopropan-2-yl)-3-cyclopropyl-2-(4,5-dimethyl-1H-1,2,3-triazol-1-yl)-N-methylpropanamide], on SARS-Cov-2 3CLpro (read-out: SARS-Cov-2 (IC50)), the IC50 fell in the range of 200 to 2000 nM. Besides, the EC50 was over 10000 nM in series [1] (cells given as a bound) and over 1000 nM in series [2] (cells given as a bound). Further, the results for the CC50 in series [3] and in [4] were over 1000 nM and over 10 µM, respectively.
For the compound `CC1NC(=O)[C@]2(C[C@@H](C#N)N(C(=O)[C@H](CC3CC3)N(C)C(=O)[C@H](CC3CC3)NC(=O)C(F)(F)F)C2)Oc2ccccc21` (single isomer, unassigned) [Compound 224, (S)—N—((S)-1-((2R,5R*,5'S)-5′-cyano-5-methyl-3-oxo-4,5-dihydro-3H-spiro[benzo[f][1,4]oxazepine-2,3′-pyrrolidin]-1′-yl)-3-cyclopropyl-1-oxopropan-2-yl)-3-cyclopropyl-N-methyl-2-(2,2,2-trifluoroacetamido)propanamide], the IC50 on SARS-Cov-2 3CLpro (read-out: SARS-Cov-2 (IC50)) was under 20 nM. Further, the EC50 in series [1] (class symbols) was under 100 nM. In series [4], this compound displayed a CC50 of over 10 µM.
For the compound `C[C@H](NC(=O)C(F)(F)F)C(=O)N(C)[C@@H](CC1CC1)C(=O)N1C[C@]2(C[C@H]1C#N)C(=O)NCC2Oc1ccccc1` (some centres unmarked) [Compound 94], the IC50 on SARS-Cov-2 3CLpro (read-out: SARS-Cov-2 (IC50)) fell in the range of 20 to 200 nM. For the same compound, the values for the EC50 in series [1] (setting [8]) and in series [2] (class symbols) were over 10000 nM and 100 to 1000 nM, respectively. Also, the CC50 was over 1000 nM in [5] and over 10 µM in series [4].
Take `C[C@H](NC(=O)Oc1ccc(F)cc1)C(=O)N(C)[C@@H](CC1CC1)C(=O)N1C[C@@]2(C[C@H]1C#N)Oc1cc(F)cc(F)c1NC2=O` [Compound 119, 4-fluorophenyl ((S)-1-(((S)-1-((2R,5'S)-5′-cyano-5,7-difluoro-3-oxo-3,4-dihydrospiro[benzo[b][1,4]oxazine-2,3′-pyrrolidin]-1′-yl)-3-cyclopropyl-1-oxopropan-2-yl)(methyl)amino)-1-oxopropan-2-yl)carbamate]: on SARS-Cov-2 3CLpro (SARS-Cov-2 (IC50)), the IC50 was under 20 nM. Besides, the EC50 is 100 to 1000 nM in series [1] (Betacoronavirus 1, class symbols) and over 1000 nM in series [2] (setting [9]). Further, the CC50 in [6] was over 1000 nM. In series [7], this compound registered a CC50 at 6 days of over 10 µM.
In the case of `CN(C(=O)[C@H](CC(C)(C)C)NC(=O)C(F)(F)F)[C@@H](CC1CC1)C(=O)N1C[C@@]2(C[C@H]1C#N)Oc1cccnc1NC2=O` [Compound 233], the IC50 on SARS-Cov-2 3CLpro (read-out: SARS-Cov-2 (IC50)) was under 20 nM. The EC50 is 100 to 1000 nM in [1] (class symbols) and under 100 nM in series [2] (class symbols). Besides, the CC50 was over 1000 nM in [5] and over 10 µM in series [4].
`Cc1cc2n(n1)[C@@]1(C[C@@H](C#N)N(C(=O)[C@H](CC(C)C)N(C)C(=O)[C@H](C)NC(=O)C(F)(F)F)C1)C(=O)N2` [Example 44, (S)—N—((S)-1-((3R,5'S)-5′-cyano-6-methyl-2-oxo-1,2-dihydrospiro[imidazo[1,2-b]pyrazole-3,3′-pyrrolidin]-1′-yl)-4-methyl-1-oxopentan-2-yl)-N-methyl-2-(2,2,2-trifluoroacetamido)propanamide]: the IC50 at SARS-Cov-2 3CLpro (read-out: SARS-Cov-2 (IC50)) fell in the range of 20 to 200 nM. Moreover, the EC50 in series [1] (setting [10]) was 100 to 1000 nM; in series [2] (setting [9]), over 1000 nM. Moreover, the CC50 in “in vitro” is over 1000 nM. The compound also registered a CC50 at 6 days in series [7] of over 10 µM.
With `CC(C)C[C@@H](C(=O)N1C[C@]2(C[C@H]1C#N)C(=O)Nc1ccnn12)N(C)C(=O)[C@H](C)NC(=O)C(F)(F)F` [Example 45, (2S)—N-[(2S)-1-[(3R,5'S)-5′-cyano-2-oxo-1H-spiro[pyrazolo[1,5-a]imidazole-3,3′-pyrrolidin]-1′-yl]-4-methyl-1-oxopentan-2-yl]-N-methyl-2-(2,2,2-trifluoroacetamido)propanamide], at SARS-Cov-2 3CLpro (read-out: SARS-Cov-2 (IC50)), the IC50 was in the range of 20 to 200 nM. In addition, the figures for the EC50 in series [1] (setting [10]) and in [2] (setting [9]) were 100 to 1000 nM and over 1000 nM, respectively. In the series “in vitro”, this compound came in with a CC50 of over 1000 nM. The compound also showed a CC50 at 6 days in [7] of over 10 µM.
For the compound `CC(C)C[C@@H](C(=O)N1C[C@]2(C[C@H]1C#N)C(=O)NCc1nccn12)N(C)C(=O)[C@H](C)NC(=O)C(F)(F)F` [Example 46, (S)—N—((S)-1-((5R,5'S)-5′-cyano-6-oxo-7,8-dihydro-6H-spiro[imidazo[1,2-a]pyrazine-5,3′-pyrrolidin]-1′-yl)-4-methyl-1-oxopentan-2-yl)-N-methyl-2-(2,2,2-trifluoroacetamido)propanamide], at SARS-Cov-2 3CLpro (read-out: SARS-Cov-2 (IC50)), the IC50 was 20 to 200 nM. The EC50 in series [1] (setting [8]) is over 10000 nM; in series [2] (setting [9]) it was over 1000 nM. The CC50 in “in vitro” is over 1000 nM. In [7], the CC50 at 6 days is over 10 µM.
